“Also recorded” adds a separate entry of the source. Where two headings read alike, the source gives them in different places.
How the values were obtained:
p21 = p21 expression in MF patient cells; format: cell-based, human; conditions: single agent alone
[1] = system: treatment-naïve patients with MF; experiment: KRT-232-114 Phase 2 open-label study, navtemadlin monotherapy; format: in vivo, human; conditions: Rux-naïve MF, 240 mg Days 1-7 of 28-day cycle
Procedure: KRT-232-114 was a Phase 2 open-label study in which the safety and efficacy of navtemadlin monotherapy was assessed in treatment-naïve patients with MF. […] Median treatment duration was 183.0 days (range, 7-539).

[2] = system: subjects with MF who were relapsed or refractory to JAK inhibitor treatment; experiment: KRT-232-101A Phase 2 open-label dose-finding study, navtemadlin monotherapy; format: in vivo, human; conditions: for TSS50 at Week 24 by MFSAF v4.0 (proportion of subjects) / SVR35 at Week 24 by Central Review (proportion of subjects): Rux-relapsed/refractory MF; for TSS50 at Week 24 by MFSAF v4.0 (proportion of subjects): n = 14; for SVR35 at Week 24 by Central Review (proportion of subjects): n = 14 with ruxolitinib washout ≥28 days; for circulating CD34+ cells: single agent
Procedure: KRT-232-101A is a Phase 2 open-label, dose-finding study designed to evaluate the safety and efficacy of navtemadlin in subjects with MF who were relapsed or refractory to JAK inhibitor treatment. Subjects were treated with one of four dosing schedules to determine the optimal Phase 2 dose and schedule: navtemadlin 120 mg QD for Days 1-7 on a […]; navtemadlin 240 mg QD for Days 1-7 on a 21-day cycle; navtemadlin 240 mg QD for Days 1-7 on a 28-day cycle; or navtemadlin 240 mg QD for Days 1-5 on a 28-day cycle.
Fourteen (14) of these subjects had ruxolitinib washout of ≥28 days prior to the baseline imaging assessment; efficacy results are reported for this subset of patients to control for the effects on the spleen after ruxolitinib discontinuation prior to Cycle 1 Day 1. Median treatment duration for all 32 subjects was 175.5 days (range, 2-469).

[3] = system: xenograft models, tumor types harboring TP53WT; experiment: Non-clinical xenograft models; format: in vivo; conditions: various genetic backgrounds
From the text: (§1) Preclinical studies conducted with navtemadlin have yielded promising results in in vitro, ex vivo, and in vivo experiments, representing solid tumors and hematologic malignancies, including MF and acute myeloid leukemia secondary to an MPN.

p21 mRNA = experiment: p53 pathway activation, non-clinical pharmacology; conditions: direct transcriptional target of p53
From the text: as §1

[4] = Standard panel of assays: mutagenicity, genotoxicity, phototoxicity
From the text: Repeat-dose toxicity studies of up to 13 weeks duration in rats and monkeys, along with in vitro and in vivo safety pharmacology studies, have been completed for navtemadlin. […] Nonclinical embryofetal toxicity and fertility studies have not been conducted for navtemadlin due to the well documented requirement for p53/MDM2 control during embryonic and fetal development. Based on its mechanism of action, navtemadlin alters cell proliferation and is expected to result in adverse effects on embryofetal viability and development.

[5] = system: JAKi-naive MF patients with a suboptimal response to ruxolitinib; experiment: Pooled published phase 3 data, suboptimal responders to ruxolitinib; format: in vivo, human
From the text: Data was pooled from published phase 3 studies for patients treated with ruxolitinib in the JAKi-naive MF setting (Verstovsek 2012; Mesa 2017; Pemmaraju 2023; Rampal 2023) to understand the natural history of patients with MF who achieve a suboptimal response to ruxolitinib, as defined in Study KRT-232-115 (e.g., a subject with an SVR>0% but <35% and a TSS reduction >0% but <50%) (FIG. 12).
FIG. 12 illustrates suboptimal spleen and symptom responders from the pooled phase 3 ruxolitinib data, including patients treated with ruxolitinib monotherapy with and without placebo. SVR data was obtained for 465 subjects from the three studies COMFORT-1, […]-1, and TRANSFORM-1 (Verstovsek 2012; Mesa 2017; Pemmaraju 2023). TSS data was obtained for 528 subjects from the three studies. Week-24 data used as a proxy to Week-18 suboptimal response assessment.

MF patients = conditions: cited from earlier work
[6] = system: patients who discontinue ruxolitinib; conditions: after discontinuing ruxolitinib; 95% CI 8.0-22.7; cited from earlier work
[7] = system: ruxolitinib-treated patients with myelofibrosis; conditions: cited from earlier work
[8] = KRT-232-101A, 240 mg Days 1-7 of 28-day cycle
[9] = KRT-232-101A, 240 mg Days 1-7 of 28-day cycle, listed as Navtemadlin
[10] = within the first 1-2 years of treatment

CC(C)[C@@H](CS(=O)(=O)C(C)C)N1C(=O)[C@@](C)(CC(=O)O)C[C@H](c2cccc(Cl)c2)[C@H]1c1ccc(Cl)cc1 [navtemadlin, 2-((3R,5R,6S)-5-(3-chlorophenyl)-6-(4-chlorophenyl)-1-((S)-1-(isopropylsulfonyl)-3-methylbutan-2-yl)-3-methyl-2-oxopiperidin-3-yl) acetic acid]
p21 expression (p21): markedly increased
SVR35 at Week 24 by Central Review (proportion of subjects) ([1]; n = 14): 14.3%
TSS50 at Week 24 by MFSAF v4.0 (proportion of subjects) ([1]; n = 14): 28.6%
SVR35 at Week 24 by Central Review (proportion of subjects) ([1]; n = 14, listed as Navtemadlin): 14.3% (2/14)
TSS50 at Week 24 by MFSAF v4.0 (proportion of subjects) ([1]; n = 14, listed as Navtemadlin): 28.6% (4/14)
TSS50 at Week 24 by MFSAF v4.0 (proportion of subjects) [2, 8]: 14.3%
TSS50 at Week 24 by MFSAF v4.0 (proportion of subjects) [2, 9]: 14.3% (2/14)
SVR35 at Week 24 by Central Review (proportion of subjects) [2, 8]: 14.3%
SVR35 at Week 24 by Central Review (proportion of subjects) [2, 9]: 14.3% (2/14)
median reduction in circulating CD34+ cells ([2]; baseline Cycle 1 Day 1 to Week 24, 240 mg Days 1-7 of 28-day cycle): 89.02%
subjects with improvement in fibrosis grade ([2]; baseline to Week 24, all evaluable subjects (12/44)): 27.3%
driver gene VAF ([2]; pharmacodynamic analysis, KRT-232-101A): VAF reductions
circulating CD34+ cells ([2]; KRT-232-101A): robustly decreased; also recorded: reduced
circulating CD34+ cells ([2]; KRT-232-101A, listed as Navtemadlin): decreased
tumor growth [3]: dose-dependent reduction
p21 mRNA (p21 mRNA): increases
mutagenicity / genotoxicity [4]: not mutagenic or genotoxic
potential for phototoxicity [4]: negligible potential

N#CC[C@H](C1CCCC1)n1cc(-c2ncnc3[nH]ccc23)cn1 [ruxolitinib, (R)-3-(4-(7H-pyrrolo[2,3-d]pyrimidin-4-yl)-1H-pyrazol-1-yl)-3-cyclopentylpropanenitrile]
p21 expression (p21): did not
mean SVR ([5]; suboptimal spleen responders, N=253, Week-24 data as proxy for Week 18): 18%
mean TSS reduction ([5]; suboptimal symptom responders (>0% but <50%)): 28.5%
time after initiating treatment by which benefit in SVR and TSS reduction is achieved, then plateau (MF patients; Verstovsek 2012): ≤ 12 weeks
MF patients with TSS reduction of greater than or equal to 50% (MF patients; ruxolitinib monotherapy): approximately 46%
responding patients achieving both SVR ≥35% and TSS ≥50% (MF patients; ruxolitinib monotherapy): 20-25%
effect on bone marrow fibrosis (MF patients; [10]): does not significantly affect
effect on variant allele frequency (VAF) of driver mutations (MF patients; [10]): does not significantly affect
median OS [6]: 13.2 months
hazard ratio for survival ([7]; patients with SVR≥25% to <35% versus SVR<10%, 95% CI 0.11-0.61): 0.25
reduction in risk of death ([7]; patients with SVR≥25% to <35% versus SVR<10%): 75%
hazard ratio for survival ([7]; patients with SVR≥35% to <50%, 95% CI 0.11-0.56): 0.24

Reference: patent US20260263471A1, “Methods of Treating Myelofibrosis” (Kartos Therapeutics, Inc., priority 2024, published 2026)
